Source: paper PMC10382604, “The mirrored cationic peptide as miRNA vehicle for efficient lung cancer therapy” (MedComm, 2023)
Ends that are not written are not given here.

How the values were obtained:
Test in all cases: CCK-8 cytotoxicity of the peptides
Settings in all cases: CCK-8 assay, peptide alone, Figure S1
[1] = tested on: A549 (lung adenocarcinoma cells); assay type: cell-based, human
Procedure: (§1) Cell viability was detected by CCK8 assay (Beyotime Biotechnology, China) based on the universal protocol.[38] The ratio of cell viability was calculated as A treated/A control × 100%.

[2] = tested on: NCI‐H1299 (lung adenocarcinoma cells); assay type: cell-based, human
Procedure: as §1

[3] = tested on: BEAS‐2B cells (human bronchial epithelial cells); assay type: cell-based
Procedure: as §1

Measured: cytotoxicity

RGDGSRRRRPLGLAGRRRR [RR19]
no significant cytotoxicity: all assays above

RGDGSRRRRPLGLAGRRRRGSRGD [RD24]
no significant cytotoxicity: all assays above

RRRRPLGLAGRRRR [RR14]
no significant cytotoxicity: all assays above
